From US7786143B2, “Thiazolyl piperidine derivatives” (Hoffman-La Roche Inc., priority 2005, dated 2010)

Target: T1, histamine 3 receptor (H3R) (Homo sapiens, UniProt Q9Y5N1)
T1 construct: expressed in transfected cells; host or cells: CHO cells (HR3-CHO)
Assay: Binding assay with 3H-(R)α-methylhistamine, competition binding on membranes of the human HR3-CHO cell line
Settings: competition with 3H(R)α-methylhistamine (1 nM), Ki calculated from IC50 by Cheng-Prusoff
Description: Binding Assay with ^3H-(R)α-methylhistamine
Saturation binding experiments were performed using HR3-CHO membranes prepared as described in Takahashi, K, Tokita, S., Kotani, H. (2003) J. Pharmacol. Exp. Therapeutics 307, 213-218.
An appropriate amount of membrane (60 to 80 μg protein/well) was incubated with increasing concentrations of ^3H(R)α-Methylhistamine di-hydrochloride (0.10 to 10 nM). Non specific binding was determined using a 200 fold excess of cold (R)α-Methylhistamine dihydrobromide (500 nM final concentration). The incubation was carried out at room temperature (in deep-well plates shaking for three hours). The final volume in each well was 250 μl. The incubation was followed by rapid filtration on GF/B filters (pre-soaked with 100 μl of 0.5% PEI in Tris 50 mM shaking at 200 rpm for two hours). The filtration was made using a cell-harvester and the filter plates were then washed five times with ice cold washing buffer containing 0.5 M NaCl. After harvesting, the plates were dried at 55° C. for 60 min, then we added scintillation fluid (Microscint 40, 40 microl in each well) and the amount of radioactivity on the filter was determined in Packard top-counter after shaking the plates for two hours at 200 rpm at room temperature.
Binding Buffer: 50 mM Tris-HCl pH 7.4 and 5 mM MgCl2×6H2O pH 7.4. Washing Buffer: 50 mM Tris-HCl pH 7.4 and 5 mM MgCl2×6H2O and 0.5 M NaCl pH 7.4.
Indirect measurement of affinity of H3R inverse agonists: twelve increasing concentrations (ranging from 10 μM to 0.3 nM) of the selected compounds were always tested in competition binding experiments using membrane of the human HR3-CHO cell line. […]
All compounds were tested at a single concentration in duplicates. […] Ki's were calculated from IC50 based on Cheng-Prusoff equation (Cheng, Y, Prusoff, W H (1973) Biochem Pharmacol 22, 3099-3108).

T1 sequence (Q9Y5N1 whole entry): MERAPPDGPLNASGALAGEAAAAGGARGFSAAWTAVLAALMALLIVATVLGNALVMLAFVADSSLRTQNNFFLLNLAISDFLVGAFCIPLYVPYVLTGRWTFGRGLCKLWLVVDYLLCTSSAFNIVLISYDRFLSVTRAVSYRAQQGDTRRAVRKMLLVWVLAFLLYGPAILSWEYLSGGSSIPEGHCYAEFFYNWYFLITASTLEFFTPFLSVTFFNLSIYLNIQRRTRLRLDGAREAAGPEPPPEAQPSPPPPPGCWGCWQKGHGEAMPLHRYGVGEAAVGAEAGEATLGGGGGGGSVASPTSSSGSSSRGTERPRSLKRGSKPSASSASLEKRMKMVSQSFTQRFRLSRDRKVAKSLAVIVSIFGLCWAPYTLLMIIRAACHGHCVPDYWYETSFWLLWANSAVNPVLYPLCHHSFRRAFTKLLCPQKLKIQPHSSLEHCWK

SMILES | Ki [nM]
CC1CCCCN1C(=O)c1csc(C2CCN(C3CCCC3)CC2)n1 (stereo not drawn) [Example 68, [2-(1-cyclopentyl-piperidin-4-yl)-thiazol-4-yl]-(2-methyl-piperidin-1-yl)-methanone] | 156
COc1ccc(-c2csc(C3CCN(C(C)C)CC3)n2)cc1 [Example 9, 1-isopropyl-4-[4-(4-methoxy-phenyl)-thiazol-2-yl]-piperidine] | 28
c1cc2c(cc1-c1csc(C3CCN(C4CCCC4)CC3)n1)OCCO2 [Example 52, 1-cyclopentyl-4-[4-(2,3-dihydro-benzo[1,4]dioxin-6-yl)-thiazol-2-yl]-piperidine] | 123
